Patent publication US12122786B2, “Inhibitors of cyclic mono- and di-nucleotide phosphodiesterases and the uses thereof” (priority 2020, dated 2024)

Assays:
[1] = system: PDE3; details: read-out: IC50 (PDE3 inhibitor); cited from earlier work
[2] = molecular target: T1, MTB CdnP (Mycobacterium tuberculosis, UniProt P71615); test: Differential radial capillary action of ligand assay (DRaCALA); type: binding; details: 20 μM MTB CdnP, 200 pM 32P c-di-AMP; C82 even at 300 μM
Description: (§1) FIG. 7A: unlabeled c-di-AMP inhibits ^32P-c-di-AMP sequestering by MTB CdnP in a concentration dependent manner. FIG. 7B: C82 effects on ^32P-c-di-AMP sequestering by MTB CdnP. […] CDA=c-di-AMP. ***=p-value<0.001. Statistical analysis conducted using the student's t-test.
(§2) Next, we sought to determine C82 mode of inhibition. Firstly, we confirmed that C82 does indeed bind to MTB CdnP, using intrinsic fluorescence assay^20. […] We then determined whether C82 could displace bound c-di-AMP from MTB CdnP. […] We also used a secondary fluorescent polarization displacement assay to confirm this finding. Briefly, fluorescent labeled c-di-GMP was incubated with MTB CdnP and treated with different concentrations of C82, or c-di-AMP in the presence of calcium to inhibit the cleavage of the bound CDN′″. […] We therefore concluded that C82 inhibits MTB CdnP by binding to a non-cyclic dinucleotide binding site. Kinetics studies reveal that C82 inhibits MTB CdnP with an apparent inhibition constant of approximately 8 μM (FIG. 8). Future structural work, beyond the scope of this work should help clarify the binding site of C82.
5 μl of the reaction mixture was pipetted onto dry untreated nitrocellulose membrane (GE Healthcare) and allowed to dry at room temperature. The nitrocellulose membrane was exposed to the GE Storage Phosphor screen for 8 h and then visualized with Typhoon™ FLA 9500 biomolecular imager.

[3] = system: PDE4; details: read-out: IC50 (PDE4 inhibitor); cited from earlier work
[4] = molecular target: RocR (Pseudomonas aeruginosa, UniProt Q9HX69); test: Selectivity, HPLC analysis of RocR reaction; details: 25 μM c-di-GMP, 10 nM RocR, 37° C., 60 min
[5] = molecular target: T1, MTB CdnP; type: biochemical; details: 20 to 150 μM inhibitor, 0.5 μM MTB CdnP, 1 h at 37° C.
[6] = molecular target: poxin (Vaccinia virus, UniProt Q01225); test: Selectivity, HPLC analysis of poxin reaction; details: 20 μM 2′3 cGAMP, 5 nM poxin, room temperature, 20 min
[7] = system: GBS-CdnP; test: Selectivity, HPLC analysis of GBS CdnP reaction; details: 50 μM c-di-AMP, 100 nM GBS CdnP, room temperature, 15 min
[8] = molecular target: T2, PDE5A (Homo sapiens, UniProt O76074); test: Cyclic mononucleotide phosphodiesterase inhibition (PDE5A), Transcreener fluorescence polarization assay; type: biochemical; details: 10 μM of compound, 1 μM cGMP, 1 h
T2 construct: purchased Reaction Biology
Description: Cyclic mononucleotide phosphodiesterase inhibition (PDE5A): 10 μM of compound was added to PDE5A in Buffer (10 mM Tris, pH 7.5, 5 mM MgCl2, 0.01% Brij 35, 1 mM DTT, and 1% DMSO). 1 μM cGMP was added and the reaction was incubated for 1 h. The assay used detects the reaction product, GMP, by Transcreener Fluorescence polarization assay (Reaction Biology).

[9] = molecular target: Yybt (Bacillus subtilis, UniProt P37484); test: Selectivity, HPLC analysis of Yybt reaction; details: 70 μM c-di-AMP, 1 μM Yybt, 37° C., 60 min
[10] = molecular target: T1, MTB CdnP; test: IC50 determination of MTB CdnP inhibition, coralyne assay; type: biochemical; details: 50 nM MTB CdnP and 80 μM c-di-AMP, read-out: IC50 of MTB CdnP enzymatic activity inhibition
[11] = molecular target: T1, MTB CdnP; test: Intrinsic fluorescence binding assay; details: 2 μM MTB CdnP, varying concentrations, 1× PBS
Description: as §2
Solutions containing 2 μM MTB CndP, and varying concentrations of C82 in 1× PBS were incubated for 30 min at room temperature. Fluorescence spectra were obtained by measuring fluorescence intensities in the 310 nm to 400 nm range following an excitation at 290 nm wavelength.

[12] = molecular target: T1, MTB CdnP; test: HPLC analysis of c-di-AMP cleavage by MTB CdnP; type: biochemical; details: 20 μM compound, 100 nM MTB CdnP, 70 μM c-di-AMP, 37° C.
[13] = molecular target: T3, ENPP1 (Homo sapiens, UniProt P22413); test: Selectivity, HPLC analysis of ENPP1 reaction; details: 25 μM cGAMP, 4.58 nM ENPP1, 37° C., 60 min
T3 sequence (P22413 1-925): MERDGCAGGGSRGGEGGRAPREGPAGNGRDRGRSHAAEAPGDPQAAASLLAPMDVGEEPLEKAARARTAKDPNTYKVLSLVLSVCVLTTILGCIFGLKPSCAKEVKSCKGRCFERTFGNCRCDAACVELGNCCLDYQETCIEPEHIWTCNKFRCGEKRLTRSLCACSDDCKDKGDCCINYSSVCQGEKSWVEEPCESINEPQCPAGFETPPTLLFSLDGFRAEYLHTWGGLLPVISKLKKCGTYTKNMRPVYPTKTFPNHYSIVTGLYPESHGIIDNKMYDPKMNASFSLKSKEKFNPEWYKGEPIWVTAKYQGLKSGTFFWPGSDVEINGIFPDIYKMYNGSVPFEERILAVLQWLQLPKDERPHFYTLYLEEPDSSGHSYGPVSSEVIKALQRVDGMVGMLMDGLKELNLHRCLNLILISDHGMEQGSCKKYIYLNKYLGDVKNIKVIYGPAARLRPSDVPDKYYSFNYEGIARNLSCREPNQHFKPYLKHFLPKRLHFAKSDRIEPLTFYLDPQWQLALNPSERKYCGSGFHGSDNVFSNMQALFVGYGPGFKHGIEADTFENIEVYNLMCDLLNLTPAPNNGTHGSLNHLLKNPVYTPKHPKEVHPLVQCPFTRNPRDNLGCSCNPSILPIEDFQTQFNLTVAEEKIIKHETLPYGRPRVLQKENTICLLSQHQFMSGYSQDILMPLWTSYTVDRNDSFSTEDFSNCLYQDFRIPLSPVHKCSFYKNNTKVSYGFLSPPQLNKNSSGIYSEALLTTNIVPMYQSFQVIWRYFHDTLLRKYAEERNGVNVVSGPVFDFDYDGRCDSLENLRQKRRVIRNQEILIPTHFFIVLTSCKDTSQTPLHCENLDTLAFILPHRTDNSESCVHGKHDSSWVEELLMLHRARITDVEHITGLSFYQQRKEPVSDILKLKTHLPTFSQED

[14] = system: mammalian cells (MDA-MB-231, and MRC-5); details: up to 100 μM, 24 h
[15] = molecular target: T1, MTB CdnP; test: Kinetics study (Dixon plot) by coralyne assay; type: biochemical; details: 50 nM MTB CdnP, 30° C., read-out: apparent inhibition constant
Description: FIG. 8: C82 Dixon plot. Initial velocity was determined using slope of c-di-AMP hydrolysis kinetics.
as §2

[16] = molecular target: T1, MTB CdnP; test: Fluorescence polarization competition assay; type: binding; details: 150 μM MTB CdnP, 50 nM F-c-di-GMP, calcium
Description: as §1, §2
Fluorescence polarization was determined using Biotek Cytation 5 multi-mode reader (excitation 485 nm/20 and emission 528 nm/20). Anisotropy was calculated using the GEN 5™ microplate reader and imaging software.

[17] = system: PDE10; details: read-out: IC50 (PDE10 inhibitor); cited from earlier work

CSc1ccc(C(=O)c2[nH]c(=O)[nH]c2C)cc1 [enoximone]
IC50 [1]: 10 µM

Nc1ncnc2c1ncn2[C@@H]1O[C@@H]2COP(=O)(O)O[C@H]3[C@@H](O)[C@H](n4cnc5c(N)ncnc54)O[C@@H]3COP(=O)(O)O[C@H]2[C@H]1O [c-di-AMP, reference compound]
displacement of radiolabeled c-di-AMP from MTB CdnP (DRaCALA) [2]: could displace radiolabeled c-di-AMP

CCOc1cc([C@@H](CS(C)(=O)=O)N2C(=O)c3cccc(NC(C)=O)c3C2=O)ccc1OC [apremilast]
IC50 [3]: 0.074 µM

CCc1cc2c(=O)n(CC(=O)Nc3ccccc3OC)cnc2s1 [Compound C82]
inhibition of RocR [4]: did not inhibit
inhibition of c-di-AMP hydrolysis by MTB CdnP (TLC), varying inhibitor concentrations [5]: most potent inhibition
inhibition of poxin [6]: did not inhibit
inhibition of GBS-CdnP [7]: did not inhibit
% inhibition (PDE5A) [8]: 32.00%
displacement of radiolabeled c-di-AMP from MTB CdnP (DRaCALA) [2]: did not displace radiolabeled c-di-AMP
inhibition of Yybt [9]: did not inhibit
IC50 [10]: 17.4 µM
binding to MTB CdnP (intrinsic fluorescence decay) [11]: does bind to MTB CdnP
inhibition of c-di-AMP cleavage by MTB CdnP (HPLC), 3 h incubation ([12]; 3 h): most potent inhibitory effects
inhibition of c-di-AMP cleavage by MTB CdnP (HPLC), overnight (12 h) incubation ([12]; 12 h): retained any inhibitory effect
inhibition of ENPP1 [13]: did not inhibit
cytotoxicity against mammalian cells (cell viability) [14]: did not significantly inhibit cell viability
Ki [15]: ~8 µM
displacement of fluorescent labeled c-di-GMP from MTB CdnP (fluorescence polarization) [16]: did not displace the fluorescent labeled c-di-GMP

COc1ccc(Cc2nccc3cc(OC)c(OC)cc23)cc1OC [papaverine]
IC50 [17]: 0.0923 µM
